Source: ChEMBL document CHEMBL2062376, “Novel oxazolo[4,5-g]quinazolin-2(1H)-ones: dual inhibitors of EGFR and Src protein tyrosine kinases” (Eur J Med Chem, 2012)
The source made the active and inactive calls. No cut-off for these calls is given here.

Columns and labels:
[1] = molecular target: T1, Epidermal growth factor receptor (Homo sapiens, UniProt P00533)
[2] = molecular target: T1, Epidermal growth factor receptor; test: Inhibition of EGFR at >100 uM
[3] = molecular target: Proto-oncogene tyrosine-protein kinase Src (Homo sapiens, UniProt P12931); test: Inhibition of SRC
Proto-oncogene tyrosine-protein kinase Src, sequence (P12931 2-536 limits assumed): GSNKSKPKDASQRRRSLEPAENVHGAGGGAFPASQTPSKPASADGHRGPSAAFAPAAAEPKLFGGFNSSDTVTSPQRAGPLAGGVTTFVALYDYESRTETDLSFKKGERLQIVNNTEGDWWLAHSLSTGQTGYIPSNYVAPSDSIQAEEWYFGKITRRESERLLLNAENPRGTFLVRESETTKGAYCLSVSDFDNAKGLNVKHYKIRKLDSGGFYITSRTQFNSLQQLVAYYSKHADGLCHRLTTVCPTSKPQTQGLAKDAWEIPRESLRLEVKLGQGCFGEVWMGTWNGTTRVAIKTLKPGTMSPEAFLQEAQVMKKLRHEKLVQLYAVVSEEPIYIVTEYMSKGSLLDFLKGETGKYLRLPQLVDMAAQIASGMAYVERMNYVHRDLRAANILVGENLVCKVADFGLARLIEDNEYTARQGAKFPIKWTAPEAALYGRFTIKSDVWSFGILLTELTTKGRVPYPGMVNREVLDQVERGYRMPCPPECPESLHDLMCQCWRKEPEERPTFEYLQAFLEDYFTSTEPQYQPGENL

A498 = test: Antiproliferative activity against human A498 cells expressing EGFR and SRC by MTT assay; type: functional, cell-based
KB = test: Antiproliferative activity against human KB cells expressing EGFR and SRC by MTT assay; type: functional, cell-based

T1 sequence (P00533 whole entry): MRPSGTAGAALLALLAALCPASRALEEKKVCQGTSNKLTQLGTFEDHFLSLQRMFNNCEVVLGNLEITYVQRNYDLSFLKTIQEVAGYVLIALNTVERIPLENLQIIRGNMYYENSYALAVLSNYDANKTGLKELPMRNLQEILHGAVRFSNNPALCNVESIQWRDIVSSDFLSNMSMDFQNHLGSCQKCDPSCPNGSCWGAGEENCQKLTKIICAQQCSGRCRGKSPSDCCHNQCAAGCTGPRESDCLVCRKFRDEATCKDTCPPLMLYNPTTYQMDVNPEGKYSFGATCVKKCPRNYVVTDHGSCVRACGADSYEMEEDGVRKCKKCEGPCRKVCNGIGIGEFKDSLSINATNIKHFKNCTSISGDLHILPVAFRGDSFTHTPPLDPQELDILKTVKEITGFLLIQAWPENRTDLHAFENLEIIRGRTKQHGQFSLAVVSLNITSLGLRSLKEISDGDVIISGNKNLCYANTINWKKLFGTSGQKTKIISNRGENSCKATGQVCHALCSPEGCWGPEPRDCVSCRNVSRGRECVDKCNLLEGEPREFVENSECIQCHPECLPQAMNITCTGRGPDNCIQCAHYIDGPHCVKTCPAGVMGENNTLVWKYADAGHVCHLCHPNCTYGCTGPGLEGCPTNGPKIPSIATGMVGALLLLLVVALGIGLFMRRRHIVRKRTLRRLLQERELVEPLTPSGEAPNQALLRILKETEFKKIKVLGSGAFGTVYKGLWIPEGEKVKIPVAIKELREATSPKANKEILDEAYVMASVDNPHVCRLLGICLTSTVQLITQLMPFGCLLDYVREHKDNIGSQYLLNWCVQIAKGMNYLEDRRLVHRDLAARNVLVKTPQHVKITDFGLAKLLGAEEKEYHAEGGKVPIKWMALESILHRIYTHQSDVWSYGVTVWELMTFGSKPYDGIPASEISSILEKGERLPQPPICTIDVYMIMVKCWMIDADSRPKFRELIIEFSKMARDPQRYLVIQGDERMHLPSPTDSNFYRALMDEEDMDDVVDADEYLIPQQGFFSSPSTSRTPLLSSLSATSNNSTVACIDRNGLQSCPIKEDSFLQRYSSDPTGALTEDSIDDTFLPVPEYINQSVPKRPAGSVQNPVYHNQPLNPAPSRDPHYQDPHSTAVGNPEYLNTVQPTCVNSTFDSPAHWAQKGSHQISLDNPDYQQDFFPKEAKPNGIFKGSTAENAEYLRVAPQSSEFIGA

C[C@@H](Nc1ncnc2cc3oc(=O)n(CCCN4CCOCC4)c3cc12)c1ccccc1
IC50 [1]: 4.5 µM

O=c1oc2cc3ncnc(Nc4ccc(O)cc4)c3cc2n1CCCN1CCOCC1
inhibition [2]: inactive
IC50 [3]: 66 µM

O=C(OCc1ccc(Cl)cc1)c1ccc(Nc2ncnc3cc4oc(=O)n(CCCN5CCOCC5)c4cc23)cc1
inhibition [2]: inactive

COc1ccc(Nc2ncnc3cc4oc(=O)n(CCCN5CCOCC5)c4cc23)cc1
IC50 [1]: 0.38 µM

O=c1oc2cc3ncnc(NCc4ccccc4)c3cc2n1CCCN1CCOCC1
IC50 [1]: 65 µM

O=c1oc2cc3ncnc(Nc4ccc5[nH]ncc5c4)c3cc2n1CCCN1CCOCC1
IC50 (A498): 18.7 µM
IC50 (KB): 18.5 µM
IC50 [1]: 0.12 µM

Cc1c(OCC(F)(F)F)ccnc1COc1cccc(Nc2ncnc3cc4oc(=O)n(CCCN5CCOCC5)c4cc23)c1
IC50 (A498): 35.3 µM
IC50 (KB): 16 µM
IC50 [1]: 0.099 µM

O=c1oc2cc3ncnc(Nc4ccc(OCc5ccccc5)cc4)c3cc2n1CCCN1CCOCC1
IC50 (A498): 14.8 µM
IC50 (KB): 37.6 µM
IC50 [1]: 0.14 µM

O=c1oc2cc3ncnc(Nc4ccccc4O)c3cc2n1CCCN1CCOCC1
IC50 [1]: 30 µM

CC(C)Oc1cccc(Nc2ncnc3cc4oc(=O)n(CCCN5CCOCC5)c4cc23)c1
IC50 [1]: 3 µM

COc1ccc(Nc2ncnc3cc4oc(=O)n(CCCN5CCOCC5)c4cc23)cc1OC
inhibition [2]: inactive

NS(=O)(=O)c1ccc(Nc2ncnc3cc4oc(=O)n(CCCN5CCOCC5)c4cc23)cc1
inhibition [2]: inactive

CCOC(=O)c1ccc(Nc2ncnc3cc4oc(=O)n(CCCN5CCOCC5)c4cc23)cc1
IC50 (A498): 8.8 µM
IC50 (KB): 6 µM
IC50 [1]: 5.8 µM
IC50 [3]: 3.1 µM

O=c1oc2cc3ncnc(Nc4ccc(OCc5ccc(Cl)cc5)c(Cl)c4)c3cc2n1CCCN1CCOCC1
IC50 (A498): 3 µM
IC50 (KB): 0.82 µM
IC50 [1]: 0.061 µM

CN(c1ccccc1)c1ncnc2cc3oc(=O)n(CCCN4CCOCC4)c3cc12
IC50 [1]: 7.2 µM

O=c1oc2cc3ncnc(Nc4ccc(F)c(F)c4)c3cc2n1CCCN1CCOCC1
IC50 [1]: 0.57 µM

O=c1oc2cc3ncnc(Nc4ccc(OCc5ccccn5)cc4)c3cc2n1CCCN1CCOCC1
IC50 [1]: 1.7 µM

Cc1cc(C)cc(Nc2ncnc3cc4oc(=O)n(CCCN5CCOCC5)c4cc23)c1
IC50 [1]: 75 µM

O=c1oc2cc3ncnc(Nc4ccc(OCc5ccc(Cl)cc5)cc4)c3cc2n1CCCN1CCOCC1
IC50 (A498): 7.4 µM
IC50 (KB): 37.1 µM
IC50 [1]: 0.99 µM

Cc1ccc(Nc2ncnc3cc4oc(=O)n(CCCN5CCOCC5)c4cc23)cc1
IC50 [1]: 0.067 µM
IC50 [3]: 7.5 µM

O=c1oc2cc3ncnc(Nc4ccc(Cl)cc4)c3cc2n1CCCN1CCOCC1
inhibition [2]: inactive

Cc1ccccc1Nc1ncnc2cc3oc(=O)n(CCCN4CCOCC4)c3cc12
inhibition [2]: inactive

C#Cc1cccc(Nc2ncnc3cc4oc(=O)n(CCCN5CCOCC5)c4cc23)c1
IC50 [1]: 0.38 µM

C[C@H](Nc1ncnc2cc3oc(=O)n(CCCN4CCOCC4)c3cc12)c1ccccc1
IC50 [1]: 3.7 µM

O=c1oc2cc3ncnc(N[C@H]4CC[C@H](O)CC4)c3cc2n1CCCN1CCOCC1
inhibition [2]: inactive

CCOC(=O)c1ccc(O)c(Nc2ncnc3cc4oc(=O)n(CCCN5CCOCC5)c4cc23)c1
IC50 (A498): 15.7 µM
IC50 (KB): 8.1 µM
IC50 [1]: 0.23 µM

CN1CCN(c2ncnc3cc4oc(=O)n(CCCN5CCOCC5)c4cc23)CC1
inhibition [2]: inactive

CC(C)(C)c1ccc(Nc2ncnc3cc4oc(=O)n(CCCN5CCOCC5)c4cc23)cc1
IC50 [1]: 79 µM

CC(=O)c1cccc(Nc2ncnc3cc4oc(=O)n(CCCN5CCOCC5)c4cc23)c1
IC50 [1]: 6.8 µM

O=c1oc2cc3ncnc(Nc4ccc(F)c(Cl)c4)c3cc2n1CCCN1CCOCC1
IC50 (A498): 32 µM
IC50 (KB): 6.5 µM
IC50 [1]: 0.078 µM

CC(=O)Nc1ccc(Nc2ncnc3cc4oc(=O)n(CCCN5CCOCC5)c4cc23)cc1
inhibition [2]: inactive

Cc1c(OCC(F)(F)F)ccnc1COc1ccc(Nc2ncnc3cc4oc(=O)n(CCCN5CCOCC5)c4cc23)cc1
IC50 [1]: 7.8 µM

CN(C)S(=O)(=O)c1ccc2c(c1)/C(=C/c1cc3c([nH]1)CCCC3)C(=O)N2
IC50 [3]: 0.073 µM
